{"source": "patent US20220275387A1", "about": "“TRANSCRIPTION FACTOR NtERF221 AND METHODS OF USING THE SAME” (University of Virginia Patent Foundation, priority 2019, published 2022)", "key": {"[1]": {"tested_on": "Nicotiana tabacum L. var. K326", "assay": "TLC assay for nicotine accumulation in leaves of T2 overexpression lines", "format": "in vivo", "conditions": "T2 transgenic plants, 5-week-old, constitutive or conditional overexpression", "protocol": "(§1) Plant materials and transformation. Tobacco plants (Nicotiana tabacum L. var. K326) were used for all the tests and genetic transformations described herein. Wild-type or transgenic seeds were germinated on Murashige and Skoog (MS) plates. For quantitative RT-PCR, germinated small seedlings were transferred onto larger MS plates and grown vertically until two weeks old before treated with 0.1% DMSO (control) or 100 μM MeJA. For TLC and GC-MS analysis, germinated seedlings were transferred in soil and grown under normal condition till five weeks old before DMSO or MeJA treatment. […]\nEach gene was put into three different expression constructs respectively under the control of three different promoters described above (FIG. 3A). […] For each construct, at least eight lines were confirmed to have the transgene stably integrated into the genome by genomic PCR, the intact structure of the transgene was validated and relative level of transgene expression measured by RT-PCR using gene specific primers as is standard practice. The level of nicotine was assessed by TLC analysis to quickly identify the transformants with higher nicotine accumulation than the wild-type. […] T1 lines were similarly self-pollinated and the resulting T2 plants analyzed. […]"}, "[2]": {"tested_on": "Nicotiana tabacum L. var. K326", "assay": "GC-MS quantification of nicotine in leaf of wild-type and transgenic tobacco", "format": "in vivo", "conditions": "five-week-old plants, DMSO or MeJA", "protocol": "as §1, with “treatment. Agrobacterium tumefaciens strain LBA4404 harboring each transgenic vector was used for genetic transformation of tobacco following the experiment procedure described previously (Horsch et al., 1985). At least eight T0 transgenic plants were confirmed by genomic DNA PCR and then self-pollinated to produce T1 generation.” for “treatment.”\nGas chromatography-mass spectrometry (GC-MS). […] Nicotine concentration was measured on a Shimadzu GCMS QP2010 plus system with a protocol developed previously (Goossens et al., (2003); Zhang et al., (2012)). […]\nTo further quantify nicotine concentration for the comparison between transgenic lines and the wild-types, GC-MS analysis was applied with total alkaloids extracted from the leaf tissue of five-week-old wild-type or transgenic plants treated with DMSO (control) or MeJA. […]"}, "[3]": {"tested_on": "NtAO, NtODC, NtPMT, NtQPT, and NtQS", "assay": "RT-qPCR of nicotine biosynthesis structural genes in transgenic tobacco seedlings", "format": "in vivo, Nicotiana tabacum", "conditions": "two-week-old seedlings, 100 μM MeJA for 8 hours, normalized to NtEF-1α", "protocol": "as §1, with “treatment. Agrobacterium tumefaciens strain LBA4404 harboring each transgenic vector was used for genetic transformation of tobacco following the experiment procedure described previously (Horsch et al., 1985). At least eight T0 transgenic plants were confirmed by genomic DNA PCR and then self-pollinated to produce T1 generation.” for “treatment.”\nRNA isolation and quantitative reverse transcription-PCR (RT-qPCR). […] The DNA-eliminated total RNA was then reverse-transcribed using QuantiTect reverse transcription kit (Qiagen). Quantitative PCR was conducted iTaq™ Universal SYBR® Green supermix (Bio-Rad Laboratories) on an CFX96™ Real-Time PCR detection system (Bio-Rad Laboratories). […]"}}, "note": "Entries after “also recorded” stand apart in the source; their conditions may differ."}
{"substance": "NtERF221: AP2/ERF family transcription factor transgene (CQ808982, SEQ ID NO: 1) overexpressed in tobacco K326", "values": [{"measurement": "nicotine accumulation versus wild-type (TLC)", "setting": "[1]", "value": "significantly elevated nicotine accumulation"}, {"measurement": "nicotine concentration in the leaf, comparison among transgenic lines", "setting": "[2]", "value": "highest nicotine concentration"}, {"measurement": "JA-induced transcript accumulation of NtAO, NtODC, NtPMT, NtQPT, and NtQS versus wild-type", "setting": "[3]", "value": "far greater; also recorded: greatly up-regulated"}]}
